Experimental findings from ChEMBL document CHEMBL1143875, “Synthesis and structure-activity relationships of thiadiazole-derivatives as potent and orally active peroxisome proliferator-activated receptors alpha/delta dual agonists” (Bioorg Med Chem, 2008) are described below.

Data set [1] in a line: Induction of ABCA1 gene expression in human skeletal muscle cells at 1 nM by RT-PCR. The data set is classed as functional.
Data set [2] in a line: AUC in Sprague-Dawley rat at 0.3 mg/kg administered as multiple dose after 8 days. The data set is classed as ADME, organism-based. Also noted: dose 0.3 mg/kg. To be noted: plasma.
Data set [3] is described as follows: AUC in Sprague-Dawley rat at 1 mg/kg administered as multiple dose after 8 days. The data set is classed as ADME, organism-based. Set-up: dose 1 mg/kg. To be noted: plasma.
Data set [4] can be described thus: Half life in Sprague-Dawley rat at 3 mg/kg administered as single dose on day 8. The data set is classed as ADME, organism-based. Also noted: dose 3 mg/kg. To be noted: in vivo.
Data set [5] is described as follows: AUC in Beagle dog at 10 mg/kg administered as single dose on day 7. The data set is classed as ADME, organism-based, Canis lupus familiaris. Set-up: dose 10 mg/kg. To be noted: plasma.
Data set [6] in a line: Half life in Beagle dog at 0.3 mg/kg administered as multiple dose after 7 days. The data set is classed as ADME, organism-based, Canis lupus familiaris. Also noted: dose 0.3 mg/kg. To be noted: in vivo.
Data set [7] is described as follows: Half life in Beagle dog at 10 mg/kg administered as single dose on day 7. The data set is classed as ADME, organism-based, Canis lupus familiaris. Set-up: dose 10 mg/kg. Conditions: in vivo.
Data set [8] is described as follows: Cmax in ob/ob C57BL/6J-leptin deficient obese mouse at 0.1 mg/kg administered as multiple dose after 11 days. The data set is classed as ADME, organism-based. Also noted: dose 0.1 mg/kg. Conditions: in vivo.
The nature of data set [9]: Cmax in ob/ob C57BL/6J-leptin deficient obese mouse at 3 mg/kg administered as single dose on day 11. Set-up: dose 3 mg/kg. The data set is classed as ADME, organism-based. Conditions: in vivo.
Data set [10] in a line: Half life in ob/ob C57BL/6J-leptin deficient obese mouse at 0.1 mg/kg administered as multiple dose after 11 days. The data set is classed as ADME, organism-based. Conditions: in vivo. Also noted: dose 0.1 mg/kg.
The test system of the next data set is Canis familiaris. The data set can be described thus: Effect on alanine aminotransferase level in Beagle dog serum at 0.3 to 3 mg/kg, po/day after 7 days. The data set is classed as functional, organism-based. Conditions: Canis lupus familiaris.
The target of data set [11] is T1, Peroxisome proliferator-activated receptor alpha (Homo sapiens, UniProt Q07869).
T1 sequence (Q07869 whole entry): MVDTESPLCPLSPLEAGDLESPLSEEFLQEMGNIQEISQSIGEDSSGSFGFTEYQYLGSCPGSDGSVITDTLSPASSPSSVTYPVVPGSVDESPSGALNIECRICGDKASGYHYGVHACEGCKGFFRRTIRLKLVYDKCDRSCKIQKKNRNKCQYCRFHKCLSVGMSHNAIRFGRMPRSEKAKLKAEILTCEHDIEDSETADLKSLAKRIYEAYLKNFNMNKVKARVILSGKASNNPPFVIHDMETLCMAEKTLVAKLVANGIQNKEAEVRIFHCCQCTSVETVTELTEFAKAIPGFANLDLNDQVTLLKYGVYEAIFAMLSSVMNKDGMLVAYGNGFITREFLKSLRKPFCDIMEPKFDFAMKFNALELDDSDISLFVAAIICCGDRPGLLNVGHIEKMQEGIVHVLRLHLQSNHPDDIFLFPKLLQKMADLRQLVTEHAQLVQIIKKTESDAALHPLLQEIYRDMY
Nature of the data set: Agonist activity at human PPARalpha-Gal4 in HEK293 cells by luciferase reporter assay. The data set is classed as functional, cell-based.

Data set [12] is described as follows: Activity at liver X receptor.

Activity calls are given as the source filed them. No cut-off for these calls is given here.

In data set [1], `Cc1cc(SCc2nc(-c3ccc(Cl)c(Cl)c3)ns2)ccc1OC(C)(C)C(=O)O` yielded a Fold change of 1.5. The figures for the AUC at 192 h in data set [2] and in data set [3] were 2400 ng·h/mL and 13900 ng·h/mL, respectively. Also, the half-life in data set [4] is 7.2 h; in data set [6], 6.5 h; in data set [7], 5.8 h; in data set [10], 5.1 h. This compound also showed an AUC in data set [5] of 57200 ng·h/mL. Moreover, the figures for the Cmax in data set [8] and in data set [9] were 480 ng/mL and 19300 ng/mL, respectively. Also, the outcome (in the data set with Canis familiaris; in [12]) was inactive. In data set [11], this compound showed an EC50 of 100 nM.
